Laboratory results taken from PubChem BioAssay AID248 (DTP/NCI, 2004).
“And” between values parts separate entries of the source, which are not always exact repeats. Identical values can stand only once. Inconclusive results and toxic doses are left out. Rule as the data show it: active = T/C of 150% or more; inactive = T/C below 125%.

System: L1210 leukemia ip in BDF1 mice, survival T/C
Assay: NCI In Vivo Anticancer Drug Screen. Data for tumor model L1210 Leukemia (intraperitoneal) in B6D2F1 (BDF1) mice
Settings: endpoint: mean survival time, higher = longer survival
Outline: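 Mice bearing the transplanted tumor received compound or vehicle. Survival of the treated group was divided by that of the vehicle-treated control group to give the ratio.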

[1] = dose: 100.0 mg/kg/injection, schedule: Q01DX009 (ip), vehicle: saline with Tween-80
[2] = dose: 200.0 mg/kg/injection, schedule: Q01DX009 (ip), vehicle: saline with Tween-80
[3] = dose: 50.0 mg/kg/injection, schedule: Q01DX009 (ip), vehicle: Klucel (hydroxypropylcellulose) (HPC)
[4] = dose: 100.0 mg/kg/injection, schedule: Q01DX001 (ip), vehicle: saline
[5] = dose: 100.0 mg/kg/injection, schedule: Q01DX009 (ip), vehicle: Klucel (hydroxypropylcellulose) (HPC)
[6] = dose: 200.0 mg/kg/injection, schedule: Q01DX001 (ip), vehicle: saline
[7] = dose: 200.0 mg/kg/injection, schedule: Q01DX009 (ip), vehicle: Klucel (hydroxypropylcellulose) (HPC)
[8] = dose: 400.0 mg/kg/injection, schedule: Q01DX001 (ip), vehicle: saline
[9] = dose: 100.0 mg/kg/injection, schedule: Q04DX002 (ip), vehicle: Klucel (hydroxypropylcellulose) (HPC)
[10] = dose: 200.0 mg/kg/injection, schedule: Q04DX002 (ip), vehicle: Klucel (hydroxypropylcellulose) (HPC)
[11] = dose: 222.0 mg/kg/injection, schedule: Q01DX Z (ip), vehicle: saline
[12] = dose: 333.0 mg/kg/injection, schedule: Q01DX Z (ip), vehicle: saline
[13] = dose: 100.0 mg/kg/injection, schedule: Q04DX003 (ip), vehicle: saline
[14] = dose: 400.0 mg/kg/injection, schedule: Q04DX002 (ip), vehicle: Klucel (hydroxypropylcellulose) (HPC)
[15] = dose: 50.0 mg/kg/injection, schedule: Q01DX001 (ip), vehicle: saline

Measured: T/C

O=C(N/N=C\c1ccc(N(CCCl)CCCl)cc1)c1cccnc1
inactive: dose: 12.5 mg/kg/injection, schedule: Q01DX Z (ip), vehicle: carboxymethylcellulose (CMC) 96 % of control | dose: 25.0 mg/kg/injection, schedule: Q01DX Z (ip), vehicle: carboxymethylcellulose (CMC) 93 % of control and 94 % of control | dose: 50.0 mg/kg/injection, schedule: Q01DX Z (ip), vehicle: carboxymethylcellulose (CMC) 94 % of control and 100 % of control | dose: 100.0 mg/kg/injection, schedule: Q01DX Z (ip), vehicle: carboxymethylcellulose (CMC) 97 % of control and 104 % of control | dose: 200.0 mg/kg/injection, schedule: Q01DX Z (ip), vehicle: carboxymethylcellulose (CMC) 107 % of control and 111 % of control

O=c1ccc2ccccc2[nH]1.[Mn]
inactive: dose: 5.0 mg/kg/injection, schedule: Q01DX001 (ip), vehicle: carboxymethylcellulose (CMC) 95 % of control | dose: 10.0 mg/kg/injection, schedule: Q01DX001 (ip), vehicle: carboxymethylcellulose (CMC) 95 % of control | dose: 20.0 mg/kg/injection, schedule: Q01DX001 (ip), vehicle: carboxymethylcellulose (CMC) 97 % of control | dose: 40.0 mg/kg/injection, schedule: Q01DX001 (ip), vehicle: carboxymethylcellulose (CMC) 97 % of control

O=C1NC(=S)S/C1=C\c1ccc(Cl)c(Cl)c1
inactive: [1] 97 % of control | [2] 95 % of control

Cn1nc(SCc2ccccc2)c(=O)n(C(c2ccccc2)c2ccccc2)c1=O
inactive: dose: 100.0 mg/kg/injection, schedule: Q01DX001 (ip), vehicle: carboxymethylcellulose (CMC) 104 % of control | dose: 200.0 mg/kg/injection, schedule: Q01DX001 (ip), vehicle: carboxymethylcellulose (CMC) 93 % of control

O=S(=O)(F)c1cccc(C[P+](c2ccccc2)(c2ccccc2)c2ccccc2)c1
inactive: dose: 25.0 mg/kg/injection, schedule: Q01DX009 (ip), vehicle: saline with Tween-80 95 % of control | dose: 50.0 mg/kg/injection, schedule: Q01DX009 (ip), vehicle: saline with Tween-80 101 % of control | dose: 100.0 mg/kg/injection, schedule: Q04DX003 (ip), vehicle: acetone 94 % of control

CC(=O)OCCS(=O)(=O)CCc1ccccc1
inactive: dose: 62.5 mg/kg/injection, schedule: Q01DX009 (ip), vehicle: Klucel (hydroxypropylcellulose) (HPC) 96 % of control | dose: 125.0 mg/kg/injection, schedule: Q01DX009 (ip), vehicle: Klucel (hydroxypropylcellulose) (HPC) 100 % of control | dose: 250.0 mg/kg/injection, schedule: Q01DX009 (ip), vehicle: Klucel (hydroxypropylcellulose) (HPC) 98 % of control

CCc1nc2[nH]c(N)nc(=S)c2cc1C
inactive: dose: 100.0 mg/kg/injection, schedule: Q01DX Z (ip), vehicle: methylcellulose (MC) 95 % of control | dose: 200.0 mg/kg/injection, schedule: Q01DX Z (ip), vehicle: methylcellulose (MC) 95 % of control

CC(C)CCC(O)c1cnc(OCc2ccccc2)nc1OCc1ccccc1 (stereo unspecified)
inactive: dose: 100.0 mg/kg/injection, schedule: Q04DX003 (ip), vehicle: Klucel (hydroxypropylcellulose) (HPC) 92 % of control | dose: 200.0 mg/kg/injection, schedule: Q04DX003 (ip), vehicle: Klucel (hydroxypropylcellulose) (HPC) 95 % of control | dose: 400.0 mg/kg/injection, schedule: Q04DX003 (ip), vehicle: Klucel (hydroxypropylcellulose) (HPC) 100 % of control

Cc1ccc([N+](=O)[O-])cc1NC(=O)Oc1ccc(Cl)cc1Cl
inactive: dose: 100.0 mg/kg/injection, schedule: Q04DX003 (ip), vehicle: saline with Tween-80 104 % of control | dose: 200.0 mg/kg/injection, schedule: Q04DX003 (ip), vehicle: saline with Tween-80 100 % of control

C[OH+]c1ccccc1C(=O)O.C[OH+]c1ccccc1C(=O)O.[Ni]
inactive: dose: 25.0 mg/kg/injection, schedule: Q04DX002 (ip), vehicle: saline with Tween-80 97 % of control and 103 % of control | dose: 50.0 mg/kg/injection, schedule: Q04DX002 (ip), vehicle: saline with Tween-80 100 % of control and 107 % of control | dose: 200.0 mg/kg/injection, schedule: Q04DX002 (ip), vehicle: saline with Tween-80 120 % of control and 90 % of control

CC(C)Oc1ccc(Nc2ccccc2)cc1
inactive: [3] 100 % of control | [4] 96 % of control | [5] 99 % of control | [6] 107 % of control | [7] 100 % of control | [8] 88 % of control

Cn1nc(NC(=O)C(F)(F)F)c2ncc(-c3ccccc3)nc21
inactive: [1] 96 % of control | [2] 96 % of control

C/C=C/C=C\COC(=O)C(C)Cl (stereo unspecified)
inactive: dose: 100.0 mg/kg/injection, schedule: Q04DX002 (ip), vehicle: saline 108 % of control | dose: 200.0 mg/kg/injection, schedule: Q04DX002 (ip), vehicle: saline 103 % of control | dose: 400.0 mg/kg/injection, schedule: Q04DX002 (ip), vehicle: saline 108 % of control

CC(=O)/C=C\c1ccc([N+](=O)[O-])o1
inactive: [9] 115 % of control | [10] 89 % of control

CC(CCc1ccc(O)cc1)OC=O (stereo unspecified)
inactive: [11] 104 % of control | [12] 91 % of control

CCOC(=O)c1ccc(NCC(C)(C)N)cc1
inactive: [13] 97 % of control

CCOC(=O)C1CC(C)c2[nH]c3ccccc3c21 (stereo unspecified)
inactive: [9] 110 % of control | [10] 107 % of control | [14] 89 % of control

C/C=C/C(=O)Nc1ccc(CC)cc1
inactive: [5] 95 % of control | [7] 92 % of control

O=C(CCCN1CCC2(CC1)OC(=O)N(c1ccc(F)cc1)C2=O)c1cccs1
inactive: dose: 50.0 mg/kg/injection, schedule: Q01DX001 (ip), vehicle: Klucel (hydroxypropylcellulose) (HPC) 94 % of control | dose: 100.0 mg/kg/injection, schedule: Q01DX001 (ip), vehicle: Klucel (hydroxypropylcellulose) (HPC) 91 % of control | dose: 200.0 mg/kg/injection, schedule: Q01DX001 (ip), vehicle: Klucel (hydroxypropylcellulose) (HPC) 88 % of control

COc1cccc(-c2ccc(N=N/C(=N/Nc3ccccc3)c3ccccc3)c(OC)c2)c1
inactive: [15] 101 % of control | [4] 95 % of control | [6] 97 % of control | [8] 89 % of control

Cn1cccc1/C=N/NC(N)=O
inactive: [9] 104 % of control | [10] 104 % of control | [14] 98 % of control

CCCCN(CCCC)CCNc1ccc(Cl)c2oc3cc(C)ccc3c(=O)c12
inactive: dose: 12.5 mg/kg/injection, schedule: Q01DX009 (ip), vehicle: Klucel (hydroxypropylcellulose) (HPC) 95 % of control | dose: 12.5 mg/kg/injection, schedule: Q04DX003 (ip), vehicle: saline with Tween-80 94 % of control | dose: 25.0 mg/kg/injection, schedule: Q01DX009 (ip), vehicle: Klucel (hydroxypropylcellulose) (HPC) 92 % of control | dose: 25.0 mg/kg/injection, schedule: Q04DX003 (ip), vehicle: saline with Tween-80 95 % of control | [15] 93 % of control | [3] 93 % of control | dose: 50.0 mg/kg/injection, schedule: Q04DX003 (ip), vehicle: saline with Tween-80 87 % of control | [4] 98 % of control | [5] 95 % of control | [6] 93 % of control | [8] 98 % of control

NC(=O)N1OCC(N)C1=O (stereo unspecified)
inactive: dose: 100.0 mg/kg/injection, schedule: Q01DX009 (ip), vehicle: saline 101 % of control | [13] 108 % of control | dose: 200.0 mg/kg/injection, schedule: Q01DX009 (ip), vehicle: saline 87 % of control | dose: 200.0 mg/kg/injection, schedule: Q04DX003 (ip), vehicle: saline 98 % of control | dose: 400.0 mg/kg/injection, schedule: Q01DX009 (ip), vehicle: saline 95 % of control | dose: 400.0 mg/kg/injection, schedule: Q04DX003 (ip), vehicle: saline 97 % of control

CCC(=O)OC(OC(=O)CC)c1cccc2ccccc12
inactive: [11] 90 % of control | [12] 86 % of control | dose: 500.0 mg/kg/injection, schedule: Q01DX Z (ip), vehicle: saline 95 % of control

CCCC(CCC)CCCCC(CCC)CCC
inactive: dose: 75.0 mg/kg/injection, schedule: Q01DX001 (ip), vehicle: saline 96 % of control | dose: 150.0 mg/kg/injection, schedule: Q01DX001 (ip), vehicle: saline 96 % of control | dose: 300.0 mg/kg/injection, schedule: Q01DX001 (ip), vehicle: saline 94 % of control

CC(=O)n1c2ccccc2c2nc3cnccc3nc21
inactive: dose: 16.0 mg/kg/injection, schedule: Q01DX005 (ip), vehicle: saline 97 % of control | dose: 32.0 mg/kg/injection, schedule: Q01DX005 (ip), vehicle: saline 97 % of control | dose: 64.0 mg/kg/injection, schedule: Q01DX005 (ip), vehicle: saline 107 % of control
